Biological target: T1, EGFR (Homo sapiens, UniProt P00533)
T1 construct: endogenous in cells; host or cells: A431 cells (lysate, captured with SUMO1 anti-EGFR antibody)
Assay: Biochemical EGFR Assay
Set-up: concentration or dose not given beside the values
Settings: protocol P.167
In short: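 Readout is ABTS absorbance at 410 nm after anti-phosphotyrosine and HRP-antibody detection of EGFR autophosphorylation. The kinase was immunocaptured from A431 lysate, exposed 30 min to test compound diluted 1:10 in TBS, then phosphorylated for 5 min with ATP/MnCl2 before an EDTA stop.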

T1 sequence (P00533 25-1210): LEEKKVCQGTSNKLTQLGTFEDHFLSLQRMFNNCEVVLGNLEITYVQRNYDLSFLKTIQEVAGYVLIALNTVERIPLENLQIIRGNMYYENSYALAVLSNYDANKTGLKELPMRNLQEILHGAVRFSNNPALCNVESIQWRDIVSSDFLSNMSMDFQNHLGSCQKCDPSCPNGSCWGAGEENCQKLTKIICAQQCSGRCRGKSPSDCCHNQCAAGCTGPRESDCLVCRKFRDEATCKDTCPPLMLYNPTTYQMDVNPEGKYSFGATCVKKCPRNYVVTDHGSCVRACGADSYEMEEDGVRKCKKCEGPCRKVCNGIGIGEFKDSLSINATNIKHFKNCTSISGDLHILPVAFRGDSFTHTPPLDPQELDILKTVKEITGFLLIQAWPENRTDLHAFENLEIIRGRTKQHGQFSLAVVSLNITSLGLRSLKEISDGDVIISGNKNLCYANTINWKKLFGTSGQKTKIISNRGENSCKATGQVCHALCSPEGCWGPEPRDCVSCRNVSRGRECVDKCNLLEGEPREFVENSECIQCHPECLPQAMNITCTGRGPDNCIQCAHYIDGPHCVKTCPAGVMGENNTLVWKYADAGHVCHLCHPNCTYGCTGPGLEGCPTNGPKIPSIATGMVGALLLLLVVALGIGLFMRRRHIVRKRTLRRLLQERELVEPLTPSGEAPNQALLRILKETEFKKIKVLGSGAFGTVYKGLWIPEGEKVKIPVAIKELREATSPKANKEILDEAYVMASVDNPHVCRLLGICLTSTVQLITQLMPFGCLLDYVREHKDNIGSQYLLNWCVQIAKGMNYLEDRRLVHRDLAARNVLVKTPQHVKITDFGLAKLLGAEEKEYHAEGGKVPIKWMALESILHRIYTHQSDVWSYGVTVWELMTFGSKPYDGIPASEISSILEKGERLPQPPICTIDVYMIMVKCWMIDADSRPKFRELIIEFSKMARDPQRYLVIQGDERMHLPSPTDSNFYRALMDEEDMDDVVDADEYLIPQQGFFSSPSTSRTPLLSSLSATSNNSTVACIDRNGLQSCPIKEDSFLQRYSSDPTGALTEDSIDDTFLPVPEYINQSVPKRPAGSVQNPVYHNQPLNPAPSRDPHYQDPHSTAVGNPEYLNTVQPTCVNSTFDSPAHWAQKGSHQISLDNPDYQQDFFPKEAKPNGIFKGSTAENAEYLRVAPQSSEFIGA

SMILES | Biochem EGFR % Inhibition (P.167) [%]
Cc1ccc(C)c(C=C2C(=O)Nc3c(Br)cc(Br)c(C)c32)c1 [10737/H07] | 17.2
Cc1c(Br)cc(Br)c2c1C(=Cc1ccc3ccccc3c1)C(=O)N2 [10737/H08] | −36.6
Cc1c(Br)cc(Br)c2c1C(=Cc1ccc(Oc3ccccc3)cc1)C(=O)N2 [10737/H09] | −15.9
Cc1c(Br)cc(Br)c2c1C(=Cc1cccc(Oc3ccc(C(C)(C)C)cc3)c1)C(=O)N2 [10737/H10] | 0.3
Cc1c(Br)cc(Br)c2c1C(=Cc1cccc(Oc3cccc(C(F)(F)F)c3)c1)C(=O)N2 [10737/H11] | 4.5
Cc1ccc(Oc2cccc(C=C3C(=O)Nc4c(Br)cc(Br)cc43)c2)cc1 [10738/A02] | 16.7
O=C1Nc2c(Br)cc(Br)cc2C1=Cc1cccc(Oc2ccc(Cl)c(Cl)c2)c1 [10738/A03] | 40.5
COc1ccc(C=C2C(=O)Nc3c(Br)cc(Br)cc32)cc1O [10738/A04] | −17.5
O=C1Nc2c(Br)cc(Br)cc2C1=Cc1cc(O)ccc1[N+](=O)[O-] [10738/A05] | 33.6
O=C1Nc2c(Br)cc(Br)cc2C1=Cc1cccc(O)c1O [10738/A06] | 54.9
O=C1Nc2c(Br)cc(Br)cc2C1=Cc1cc(O)cc(O)c1 [10738/A07] | 4.3
O=C1Nc2c(Br)cc(Br)cc2C1=Cc1ccc(Cl)c(Cl)c1 [10738/A08] | 6.0
COc1ccccc1C=C1C(=O)Nc2c(Br)cc(Br)cc21 [10738/A09] | 17.0
CC(C)c1ccc(C=C2C(=O)Nc3c(Br)cc(Br)cc32)cc1 [10738/A10] | −0.9
CCCOc1ccc(C=C2C(=O)Nc3c(Br)cc(Br)cc32)cc1 [10738/A11] | 4.5
Cc1ccc(Oc2cccc(C=C3C(=O)Nc4ccc(I)cc43)c2)cc1 [10738/B02] | −24.4
O=C1Nc2ccc(I)cc2C1=Cc1cccc(Oc2ccc(Cl)c(Cl)c2)c1 [10738/B03] | 19.2
COc1ccc(C=C2C(=O)Nc3ccc(I)cc32)cc1O [10738/B04] | 51.2
O=C1Nc2ccc(I)cc2C1=Cc1cc(O)ccc1[N+](=O)[O-] [10738/B05] | 57.6
O=C1Nc2ccc(I)cc2C1=Cc1cccc(O)c1O [10738/B06] | 22.9
O=C1Nc2ccc(I)cc2C1=Cc1cc(O)cc(O)c1 [10738/B07] | 28.7
O=C1Nc2ccc(I)cc2C1=Cc1ccc(Cl)c(Cl)c1 [10738/B08] | 33.9
COc1ccccc1C=C1C(=O)Nc2ccc(I)cc21 [10738/B09] | 20.9
CC(C)c1ccc(C=C2C(=O)Nc3ccc(I)cc32)cc1 [10738/B10] | 37.3
CCCOc1ccc(C=C2C(=O)Nc3ccc(I)cc32)cc1 [10738/B11] | 18.0
Cc1ccc(Oc2cccc(C=C3C(=O)Nc4ccc(Br)c(C)c43)c2)cc1 [10738/C02] | −30.5

SMILES | Biochem EGFR % Inhibition (P.167) [%]
Cc1c(Br)ccc2c1C(=Cc1cccc(Oc3ccc(Cl)c(Cl)c3)c1)C(=O)N2 [10738/C03] | 8.2
COc1ccc(C=C2C(=O)Nc3ccc(Br)c(C)c32)cc1O [10738/C04] | 43.7
Cc1c(Br)ccc2c1C(=Cc1cc(O)ccc1[N+](=O)[O-])C(=O)N2 [10738/C05] | 18.4
Cc1c(Br)ccc2c1C(=Cc1cccc(O)c1O)C(=O)N2 [10738/C06] | 28.7
Cc1c(Br)ccc2c1C(=Cc1cc(O)cc(O)c1)C(=O)N2 [10738/C07] | −19.0
Cc1c(Br)ccc2c1C(=Cc1ccc(Cl)c(Cl)c1)C(=O)N2 [10738/C08] | −11.9
COc1ccccc1C=C1C(=O)Nc2ccc(Br)c(C)c21 [10738/C09] | 31.9
Cc1c(Br)ccc2c1C(=Cc1ccc(C(C)C)cc1)C(=O)N2 [10738/C10] | 5.2
CCCOc1ccc(C=C2C(=O)Nc3ccc(Br)c(C)c32)cc1 [10738/C11] | −1.1
CNS(=O)(=O)c1ccc2c(c1)C(=Cc1cccc(Oc3ccc(C)cc3)c1)C(=O)N2 [10738/D02] | 21.4
CNS(=O)(=O)c1ccc2c(c1)C(=Cc1cccc(Oc3ccc(Cl)c(Cl)c3)c1)C(=O)N2 [10738/D03] | 47.6
CNS(=O)(=O)c1ccc2c(c1)C(=Cc1ccc(OC)c(O)c1)C(=O)N2 [10738/D04] | 7.4
CNS(=O)(=O)c1ccc2c(c1)C(=Cc1cc(O)ccc1[N+](=O)[O-])C(=O)N2 [10738/D05] | 4.3
CNS(=O)(=O)c1ccc2c(c1)C(=Cc1cccc(O)c1O)C(=O)N2 [10738/D06] | 32.4
CNS(=O)(=O)c1ccc2c(c1)C(=Cc1cc(O)cc(O)c1)C(=O)N2 [10738/D07] | −8.7
CNS(=O)(=O)c1ccc2c(c1)C(=Cc1ccc(Cl)c(Cl)c1)C(=O)N2 [10738/D08] | 0.6
CNS(=O)(=O)c1ccc2c(c1)C(=Cc1ccccc1OC)C(=O)N2 [10738/D09] | 12.1
CNS(=O)(=O)c1ccc2c(c1)C(=Cc1ccc(C(C)C)cc1)C(=O)N2 [10738/D10] | −12.4
CCCOc1ccc(C=C2C(=O)Nc3ccc(S(=O)(=O)NC)cc32)cc1 [10738/D11] | −13.1
Cc1ccc(Oc2cccc(C=C3C(=O)Nc4ccc(S(=O)(=O)Nc5ccc(C(F)(F)F)cc5)cc43)c2)cc1 [10738/E02] | 56.1
O=C1Nc2ccc(S(=O)(=O)Nc3ccc(C(F)(F)F)cc3)cc2C1=Cc1cccc(Oc2ccc(Cl)c(Cl)c2)c1 [10738/E03] | 82.6
COc1ccc(C=C2C(=O)Nc3ccc(S(=O)(=O)Nc4ccc(C(F)(F)F)cc4)cc32)cc1O [10738/E04] | 13.1
O=C1Nc2ccc(S(=O)(=O)Nc3ccc(C(F)(F)F)cc3)cc2C1=Cc1cc(O)ccc1[N+](=O)[O-] [10738/E05] | 52.0
O=C1Nc2ccc(S(=O)(=O)Nc3ccc(C(F)(F)F)cc3)cc2C1=Cc1cccc(O)c1O [10738/E06] | 15.8
O=C1Nc2ccc(S(=O)(=O)Nc3ccc(C(F)(F)F)cc3)cc2C1=Cc1cc(O)cc(O)c1 [10738/E07] | 57.1
O=C1Nc2ccc(S(=O)(=O)Nc3ccc(C(F)(F)F)cc3)cc2C1=Cc1ccc(Cl)c(Cl)c1 [10738/E08] | 43.2

SMILES | Biochem EGFR % Inhibition (P.167) [%]
COc1ccccc1C=C1C(=O)Nc2ccc(S(=O)(=O)Nc3ccc(C(F)(F)F)cc3)cc21 [10738/E09] | 35.3
CC(C)c1ccc(C=C2C(=O)Nc3ccc(S(=O)(=O)Nc4ccc(C(F)(F)F)cc4)cc32)cc1 [10738/E10] | 34.1
CCCOc1ccc(C=C2C(=O)Nc3ccc(S(=O)(=O)Nc4ccc(C(F)(F)F)cc4)cc32)cc1 [10738/E11] | 15.8
Cc1ccc(Oc2cccc(C=C3C(=O)Nc4ccc(S(=O)(=O)N5CCOCC5)cc43)c2)cc1 [10738/F02] | 13.1
O=C1Nc2ccc(S(=O)(=O)N3CCOCC3)cc2C1=Cc1cccc(Oc2ccc(Cl)c(Cl)c2)c1 [10738/F03] | 45.6
COc1ccc(C=C2C(=O)Nc3ccc(S(=O)(=O)N4CCOCC4)cc32)cc1O [10738/F04] | −6.5
O=C1Nc2ccc(S(=O)(=O)N3CCOCC3)cc2C1=Cc1cc(O)ccc1[N+](=O)[O-] [10738/F05] | 51.5
O=C1Nc2ccc(S(=O)(=O)N3CCOCC3)cc2C1=Cc1cccc(O)c1O [10738/F06] | −19.5
O=C1Nc2ccc(S(=O)(=O)N3CCOCC3)cc2C1=Cc1cc(O)cc(O)c1 [10738/F07] | 9.1
O=C1Nc2ccc(S(=O)(=O)N3CCOCC3)cc2C1=Cc1ccc(Cl)c(Cl)c1 [10738/F08] | 15.5
COc1ccccc1C=C1C(=O)Nc2ccc(S(=O)(=O)N3CCOCC3)cc21 [10738/F09] | 0.1
CC(C)c1ccc(C=C2C(=O)Nc3ccc(S(=O)(=O)N4CCOCC4)cc32)cc1 [10738/F10] | −4.8
CCCOc1ccc(C=C2C(=O)Nc3ccc(S(=O)(=O)N4CCOCC4)cc32)cc1 [10738/F11] | −14.8
Cc1ccc(Oc2cccc(C=C3C(=O)Nc4ccc(CCCl)cc43)c2)cc1 [10738/G02] | 19.9
O=C1Nc2ccc(CCCl)cc2C1=Cc1cccc(Oc2ccc(Cl)c(Cl)c2)c1 [10738/G03] | 31.9
COc1ccc(C=C2C(=O)Nc3ccc(CCCl)cc32)cc1O [10738/G04] | 12.1
O=C1Nc2ccc(CCCl)cc2C1=Cc1cc(O)ccc1[N+](=O)[O-] [10738/G05] | 27.3
O=C1Nc2ccc(CCCl)cc2C1=Cc1cccc(O)c1O [10738/G06] | −8.2
O=C1Nc2ccc(CCCl)cc2C1=Cc1cc(O)cc(O)c1 [10738/G07] | −1.9
O=C1Nc2ccc(CCCl)cc2C1=Cc1ccc(Cl)c(Cl)c1 [10738/G08] | 23.6
COc1ccccc1C=C1C(=O)Nc2ccc(CCCl)cc21 [10738/G09] | 16.7
CC(C)c1ccc(C=C2C(=O)Nc3ccc(CCCl)cc32)cc1 [10738/G10] | 26.5
CCCOc1ccc(C=C2C(=O)Nc3ccc(CCCl)cc32)cc1 [10738/G11] | 19.4
Cc1ccc(Oc2cccc(C=C3C(=O)Nc4c(Br)cc(Br)c(C)c43)c2)cc1 [10738/H02] | −52.0

Reference: patent US20020026053A1, “Novel 3-(substituted) -2- indolinones compounds and use thereof as inhibitors of protein kinase activity” (priority 1997, published 2002)
